Inhibition and IC50 data for 22 compounds are collected here from ChEMBL document CHEMBL1129781, “Inhibition of protein phosphatase 2A by cantharidin analogues” (Bioorg Med Chem Lett, 1996).

For test [1], the species on record is Mus musculus. Nature of the test: Compound was tested for inhibition of cantharidin-binding protein(CBP) phosphatase isolated from mouse liver: Range= 22-51. To be noted: concentration not given here.
The nature of test [2]: Compound was tested for inhibition of specific [3H]cantharidin binding to CBP: Range= 10-50. Further details: species or system Mus musculus.
The species named for test [3] is Mus musculus. The test is described as follows: Inhibition of Protein Phosphatase 2A (PP2A) partially purified from mouse brain. Type of test: tissue-based. More on the design: concentration or dose not given beside the values. Particulars: concentration not given here.
Test [4] can be described thus: Compound was tested for inhibition of specific [3H]cantharidin binding to CBP: Range= 200->100000. More on the design: species or system Mus musculus.
Test [5] is filed under the species Mus musculus. Nature of the test: Compound was tested for inhibition of cantharidin-binding protein(CBP) phosphatase isolated from mouse liver. More on the design: concentration or dose not given beside the values. Particulars: concentration not given here.
The nature of test [6]: Compound was tested for inhibition of specific [3H]cantharidin binding to CBP. More on the design: species or system Mus musculus.
Test [7] addresses Serine/threonine-protein phosphatase 2A 65 kDa regulatory subunit A alpha isoform (Mus musculus, UniProt Q76MZ3). Nature of the test: Compound was tested for inhibitory concentration of Protein Phosphatase 2A (PP2A).
Test [8] is filed under the species Mus musculus. The test is described as follows: Compound was tested for inhibition of cantharidin-binding protein(CBP) phosphatase isolated from mouse liver: Range=92-95. Particulars: concentration not given here.
A short description of test [9]: Compound was tested for inhibition of specific [3H]cantharidin binding to CBP: Range=4-8. Further details: species or system Mus musculus.

Each structure is given as a SMILES string. pIC50: −log10 of the molar value.

Serine/threonine-protein phosphatase 2A 65 kDa regulatory subunit A alpha isoform, sequence (Q76MZ3 whole entry, canonical isoform): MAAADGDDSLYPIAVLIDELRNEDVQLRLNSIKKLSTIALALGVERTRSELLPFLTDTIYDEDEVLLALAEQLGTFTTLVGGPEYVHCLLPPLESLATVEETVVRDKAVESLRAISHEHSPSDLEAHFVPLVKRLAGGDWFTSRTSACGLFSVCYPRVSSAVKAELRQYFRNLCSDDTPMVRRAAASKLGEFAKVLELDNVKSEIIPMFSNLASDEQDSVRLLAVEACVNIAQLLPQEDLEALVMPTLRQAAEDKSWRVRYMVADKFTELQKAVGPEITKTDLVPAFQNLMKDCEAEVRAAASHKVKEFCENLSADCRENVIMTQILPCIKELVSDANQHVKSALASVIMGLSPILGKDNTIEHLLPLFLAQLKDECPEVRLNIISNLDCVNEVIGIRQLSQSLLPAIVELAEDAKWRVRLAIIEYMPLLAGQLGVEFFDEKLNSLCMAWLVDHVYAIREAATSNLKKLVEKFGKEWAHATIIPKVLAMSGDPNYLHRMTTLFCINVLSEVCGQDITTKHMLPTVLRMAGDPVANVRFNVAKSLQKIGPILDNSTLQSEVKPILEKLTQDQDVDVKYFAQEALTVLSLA

In general, inhibition refers to the change of the read-out against control, counted positive when it falls. As a reminder, the pIC50 is −log10 of the IC50, conventionally taken in molar units. Consider `O=C(O)C1CC2OC1C(C(=O)O)C2C(=O)O` (stereo unspecified), for which, in the test listed under Mus musculus [1], the inhibition was found to be 51%. This compound showed a pIC50 in test [2] of 7.30.

With `O=C1OC(=O)C2C3CCC(C3)C12` (stereo in doubt; 11), the inhibition in the test filed under Mus musculus [3] came to 13.3%.

In turn, `N#CCC1CC2OC1C(C(=O)O)C2C(=O)O` (stereo unspecified) had a pIC50 in test [4] below 4.00. The compound further displayed an inhibition in the test filed under Mus musculus [5] of 0%.

`CC1(C(=O)O)C2CCC(O2)C1(C)C(=O)O` (stereo unspecified) [CANTHARIDIC_ACID] gave a negative-log IC50 (pIC50) in test [6] of 5.40. In the test filed under Mus musculus [5], this compound showed an inhibition of 95%.

As to `O=C1OC(=O)C2CC=CCC12` (stereo unspecified), the inhibition in the test listed under Mus musculus [3] amounted to 24%.

The compound `O=C(O)C1C2C=CC(O2)C1C(=O)O` (stereo unspecified) gave an inhibition in the test listed under Mus musculus [3] of 80.3%. The compound also gave a pIC50 in test [7] of 3.52.

Compound `CCOC(=O)C1CC2OC1C(C(=O)O)C2C(=O)O` (stereo unspecified) showed a pIC50 in [4] below 4.00. This compound also displayed an inhibition in the test listed under Mus musculus [5] of 0%.

In the test listed under Mus musculus [3], `O=C1OC(=O)[C@H]2[C@@H]1[C@H]1C=C[C@H]2C1` (stereo in doubt; 5) registered an inhibition of 48.1%.

The compound `O=C(O)C1CC=CCC1C(=O)O` (stereo unspecified) yielded an inhibition in the test listed under Mus musculus [3] of 12.2%.

`O=C1OC(=O)C23CCCC12C1CCC3O1` (stereo unspecified) had a pIC50 in test [6] of 5.40. The inhibition in the test filed under Mus musculus [5] was 95%.

Compound `O=C1OC(=O)C2C3C=CC(O3)C12` (stereo unspecified) displayed an inhibition in the test filed under Mus musculus [3] of 95.2%. Further, in [7], the negative logarithm of the IC50 (pIC50) was 4.40.

Turning to `COC(=O)C1CC2C=CC1C2` (stereo unspecified), the inhibition in the test listed under Mus musculus [3] turned out to be 30.8%.

`CC1(C(=O)O)C2CCC(O2)C1C(=O)O` (stereo unspecified) registered an inhibition in the test filed under Mus musculus [1] of 51%. In addition, the pIC50 in test [2] is 7.30.

Compound `O=C1OC(=O)C2C3CCC(O3)C12` (stereo unspecified) [DEMETHYL-CANTHARIDIN] yielded an inhibition in the test filed under Mus musculus [3] of 88.3%. Moreover, the pIC50 in [7] was 4.15.

In the test listed under Mus musculus [3], `O=C1OC(=O)C2CCCCC12` (stereo unspecified) gave an inhibition of 9.2%.

Compound `O=C(O)C1CC2C=CC1C2` (stereo unspecified) displayed an inhibition in the test listed under Mus musculus [3] of 3.8%.

In the test listed under Mus musculus [3], `O=C1OC(=O)[C@H]2[C@@H]1[C@H]1C=C[C@H]2C1` (stereo in doubt; 6) returned an inhibition of 48.8%.

With `CC12C(=O)OC(=O)C1(C)C1CCC2O1` (stereo unspecified), the inhibition in the test listed under Mus musculus [3] amounted to 95%; in the test listed under Mus musculus [8] it was 92%. For the same compound, the values for the pIC50 in test [7] and in test [9] were 5.10 and 8.40, respectively.

In turn, `CC12CCC(C)(O1)C(C(=O)O)C2C(=O)O` (stereo unspecified) gave a pIC50 in test [4] below 4.00. The compound further gave an inhibition in the test listed under Mus musculus [5] of 0%.

`O=C(O)[C@@H]1[C@H](C(=O)O)[C@H]2CC[C@@H]1O2` [ENDOTHALL] came in with an inhibition in the test filed under Mus musculus [1] of 51%. Besides, the pIC50 in test [2] is 7.30.

On to `O=C(O)C1C2C=CC(C2)C1C(=O)O` (stereo unspecified), for which, in the test filed under Mus musculus [3], the inhibition was found to be 17.2%.

Consider `O=C1OC(=O)C2C3CCC(C3)C12` (stereo in doubt; 7), for which, in the test filed under Mus musculus [3], the inhibition is 38.7%.
